Article PMC11249646, “Small-Molecule Disruptors of the Interaction between Calcium- and Integrin-Binding Protein 1 and Integrin αIIbβ3 as Novel Antiplatelet Agents” (ACS Pharmacology & Translational Science, 2024)
Read-outs that look alike come from different tables or passages of the source.

Tests used:
[1] = target: T1, CIB1 and αIIb interaction (CIB1-GST : F-αIIb peptide) (Homo sapiens, UniProt Q99828); test: FP assay, 1536-well qHTS format (primary and confirmatory screen); format: binding; conditions: for Curve Class (confirmatory screen) / CONFIRMATORY SCREEN Curve Class: qHTS curve class
T1 construct: made in house; host or cells: BL-21 plus RIL cells (E. coli)
T1 sequence (Q99828 1-191): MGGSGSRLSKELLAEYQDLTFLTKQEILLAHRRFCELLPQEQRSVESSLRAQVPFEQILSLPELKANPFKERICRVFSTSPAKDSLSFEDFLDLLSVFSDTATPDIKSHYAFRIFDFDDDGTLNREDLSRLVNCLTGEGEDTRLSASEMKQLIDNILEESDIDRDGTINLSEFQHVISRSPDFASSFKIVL

[2] = target: T2, GST-CIB1 : F-scrambled peptide (Homo sapiens, UniProt Q99828); test: FP scrambled-peptide counter screen, 1536-well format; format: binding; conditions: for Curve Class (counterscreen) / COUNTERSCREEN Curve Class: qHTS curve class; for IC50: read-out: IC50 [μM] (counterscreen)
T2 construct: made in house; host or cells: BL-21 plus RIL cells (E. coli)
T2 sequence (Q99828 1-191): T1 sequence (Q99828 1-191)

[3] = confirmatory screen, negative sign = inhibitory curve
[4] = confirmatory screen, read-out: IC50 [μM] (confirmatory screen)
[5] = qHTS FP screen hits, Table S2, negative = inhibition
[6] = qHTS FP screen hits, Table S2, one class per curve where COUNT > 1, negative sign = inhibitory curve
[7] = qHTS FP screen hits, Table S2, read-out: IC50
[8] = counterscreen, negative sign = inhibitory curve
[9] = Table S3, confirmatory screen, a negative sign marks inhibitory curves
[10] = Table S3, confirmatory screen, negative = inhibition
[11] = qHTS primary screen hits, Table S2, negative = inhibition
[12] = qHTS primary screen hits, Table S2, negative sign = inhibitory curve, several classes where COUNT > 1
[13] = qHTS primary screen hits, Table S2, read-out: IC50
[14] = Table S3, counterscreen, a negative sign marks inhibitory curves
[15] = Table S3, counterscreen, negative = inhibition
[16] = Table S3, confirmatory screen, YES/NO call
[17] = Table S3, confirmatory screen, read-out: IC50 [μM] (confirmatory screen)
[18] = qHTS primary screen hits, Table S2, negative sign = inhibitory curve
[19] = scrambled-peptide counterscreen

Nc1nc2c(s1)C(c1ccc(F)cc1F)CC(=O)N2 (stereo not shown) [NCGC00422010-03]
Efficacy (%) (confirmatory screen) ([1]; confirmatory screen): -39%
Confirm? (confirmatory screen) ([1]; confirmatory screen, YES/NO): YES
Curve Class (confirmatory screen) [1, 3]: -2.4
IC50 [1, 4]: 89.1 µM
Efficacy (%) [1, 5]: -54%
Curve Class [1, 6]: -2.2
IC50 [1, 7]: 79.4 µM
Efficacy (%) (counterscreen) ([2]; counterscreen): -16%
Confirm? (counterscreen) ([2]; counterscreen, YES/NO): YES
Curve Class (counterscreen) [2, 8]: 4

Cn1cnc(-c2nccc3c(O)nc(OCCCC(F)(F)F)nc23)c1.O=C(O)C(F)(F)F [NCGC00381768-02]
Curve Class (confirmatory screen) [1, 9]: 4
Efficacy (%) (confirmatory screen) [1, 10]: -16%
Efficacy (%) [1, 11]: -25%
Curve Class [1, 12]: -2.4
IC50 [1, 13]: 31.6 µM
Curve Class (counterscreen) [2, 14]: 4
Efficacy (%) (counterscreen) [2, 15]: -28%

O=C(O)C(F)(F)F.O=C1CCCC2=C1C1(CCCOC1)N=C(Nc1nc3ccccc3o1)N2 (stereo not shown) [NCGC00188575-01]
CONFIRMATORY SCREEN Efficacy (%) ([1]; confirmatory screen): -18%
CONFIRMATORY SCREEN Curve Class ([1]; confirmatory screen): 4
Efficacy (%) [1, 11]: -34%
Curve Class [1, 12]: -2.2
IC50 [1, 13]: 28.2 µM
COUNTERSCREEN Efficacy (%) ([2]; counterscreen): -21%
COUNTERSCREEN Curve Class ([2]; counterscreen): 4

Cc1cc2nc3ccc(N(C)C)cc3[s+]c2cc1N.Cl.[Cl-] [NCGC00181775-02]
Efficacy (%) (confirmatory screen) ([1]; confirmatory screen): -72%
Confirm? (confirmatory screen) ([1]; confirmatory screen, YES/NO): YES
Curve Class (confirmatory screen) [1, 3]: -2.2
IC50 [1, 4]: 22.4 µM
Efficacy (%) [1, 11]: -38%
Curve Class [1, 12]: -2.4
IC50 [1, 13]: 39.8 µM
Efficacy (%) (counterscreen) ([2]; counterscreen): -83%
Curve Class (counterscreen) [2, 8]: -2.2
IC50 ([2]; counterscreen): 44.7 µM

CC1=C(C(=O)Nc2cccc(C(=O)O)c2)C(c2ccccc2Cl)N=C(Nc2nc3ccccc3o2)N1.O=C(O)C(F)(F)F (stereo not shown) [NCGC00351024-01]
Efficacy (%) (confirmatory screen) ([1]; confirmatory screen): -26%
Confirm? (confirmatory screen) ([1]; confirmatory screen, YES/NO): YES
Curve Class (confirmatory screen) [1, 3]: -2.4
Efficacy (%) [1, 5]: -37%
Curve Class [1, 6]: -2.2
IC50 [1, 7]: 39.8 µM
Efficacy (%) (counterscreen) ([2]; counterscreen): 141%
Confirm? (counterscreen) ([2]; counterscreen, YES/NO): YES
IC50 ([2]; counterscreen): 79.4 µM

O=[N+]([O-])c1ccc(O)c2ncccc12 [NCGC00160664-03]
CONFIRMATORY SCREEN Efficacy (%) ([1]; confirmatory screen): 0%
CONFIRMATORY SCREEN Curve Class ([1]; confirmatory screen): 4
Efficacy (%) [1, 11]: -25%
Curve Class [1, 12]: -1.4
IC50 [1, 13]: 31.6 µM
COUNTERSCREEN Efficacy (%) ([2]; counterscreen): -13%
COUNTERSCREEN Curve Class ([2]; counterscreen): 4

CC(=O)[O][Hg][c]1ccccc1 [NCGC00091050-09]
Curve Class (confirmatory screen) [1, 9]: 4
Efficacy (%) (confirmatory screen) [1, 10]: 41%
Efficacy (%) [1, 11]: -59%
Curve Class [1, 12]: -1.2
IC50 [1, 13]: 7.9 µM
Curve Class (counterscreen) [2, 14]: 2.3
Efficacy (%) (counterscreen) [2, 15]: 145%

O=C(Nc1ccc(S(=O)(=O)N2CCOCC2)cc1)c1cc(Cl)ccc1NS(=O)(=O)c1ccc(Cl)s1.O=C(O)C(F)(F)F [NCGC00249417-01]
Curve Class (confirmatory screen) [1, 9]: 4
Efficacy (%) (confirmatory screen) [1, 10]: -31%
Efficacy (%) (counterscreen) [2, 15]: 163%
IC50 ([2]; Table S3, counterscreen): 79.4 µM

O=C(NC1=CC(=O)[C@H]2O[C@H]2C1=O)c1ccccc1O [NCGC00168093-01]
Confirm? (confirmatory screen) [1, 16]: YES
Curve Class (confirmatory screen) [1, 9]: -2.4
Efficacy (%) (confirmatory screen) [1, 10]: -49%
IC50 [1, 17]: 56.2 µM
Efficacy (%) [1, 11]: -29%
Curve Class [1, 12]: -2.4
IC50 [1, 13]: 31.6 µM
Curve Class (counterscreen) [2, 14]: -2.4
Efficacy (%) (counterscreen) [2, 15]: -54%
IC50 ([2]; Table S3, counterscreen): 50.1 µM

Cc1ccc2c(c1)/C(=C\C(=O)c1cccs1)C(=O)N2.O=C(O)C(F)(F)F [NCGC00479180-01]
Confirm? (confirmatory screen) [1, 16]: YES
Curve Class (confirmatory screen) [1, 9]: -1.2
Efficacy (%) (confirmatory screen) [1, 10]: -57%
IC50 [1, 17]: 11.2 µM
Efficacy (%) [1, 11]: -36%
Curve Class [1, 12]: -1.4
IC50 [1, 13]: 15.8 µM
Curve Class (counterscreen) [2, 14]: -2.4
Efficacy (%) (counterscreen) [2, 15]: -64%
IC50 ([2]; Table S3, counterscreen): 11.2 µM

Cc1ccc([N+](=O)[O-])[c]2c1[O][Hg]2 [NCGC00249897-01]
Curve Class (confirmatory screen) [1, 9]: 4
Efficacy (%) (confirmatory screen) [1, 10]: 0%
Efficacy (%) [1, 11]: -49%
Curve Class [1, 12]: -1.4
IC50 [1, 13]: 3.5 µM
Efficacy (%) (counterscreen) [2, 15]: 111%

O=C(O)C(F)(F)F.O=C(O)c1ccc(O)c2ncc(N3CCC(N4CCOCC4)C3)cc12 (stereo not shown) [NCGC00241757-01]
CONFIRMATORY SCREEN Efficacy (%) ([1]; confirmatory screen): -17%
CONFIRMATORY SCREEN Curve Class ([1]; confirmatory screen): 4
Efficacy (%) [1, 5]: -22%
IC50 [1, 7]: 35.5 µM
COUNTERSCREEN Efficacy (%) ([2]; counterscreen): -21%
COUNTERSCREEN Curve Class ([2]; counterscreen): 4

NC(=O)c1cccc(-c2cnc3c(O)ccc(C(=O)O)c3c2)c1.O=C(O)C(F)(F)F [NCGC00241055-01]
Curve Class (confirmatory screen) [1, 9]: 4
Efficacy (%) (confirmatory screen) [1, 10]: -31%
Efficacy (%) [1, 11]: -35%
Curve Class [1, 18]: -2.4
IC50 [1, 13]: 31.6 µM
Confirm? (counterscreen) ([2]; Table S3, counterscreen, YES/NO call): YES
Curve Class (counterscreen) [2, 14]: -2.4
Efficacy (%) (counterscreen) [2, 15]: -42%
IC50 ([2]; Table S3, counterscreen): 35.5 µM

CN(C)C(=S)SSC(=S)N(C)C [NCGC00091563-12]
IC50 ([1]; IC50 [μM]): 39.8 µM
CONFIRMATORY SCREEN Confirm? ([1]; confirmatory screen, YES/NO call): YES
CONFIRMATORY SCREEN Curve Class [1, 3]: -1.2
CONFIRMATORY SCREEN Efficacy (%) ([1]; confirmatory screen, negative = inhibition): -67%
IC50 ([1]; confirmatory screen, read-out: CONFIRMATORY SCREEN IC50): 7.1 µM
Efficacy (%) [1, 5]: -71%
Curve Class [1, 6]: -2.2
COUNTERSCREEN Efficacy (%) [2, 19]: 14%
COUNTERSCREEN Confirm? ([2]; scrambled-peptide counterscreen, YES/NO call): YES
COUNTERSCREEN Curve Class [2, 19]: 4

Cc1ccc(S(=O)(=O)Nc2cc3c(cc2C(=O)Nc2nc(-c4ccccc4)cs2)OCO3)cc1.O=C(O)C(F)(F)F [NCGC00263702-01]
Curve Class (confirmatory screen) [1, 9]: 4
Efficacy (%) (confirmatory screen) [1, 10]: -44%
Efficacy (%) [1, 11]: -40%
Curve Class [1, 18]: -2.2
IC50 [1, 13]: 39.8 µM
Efficacy (%) (counterscreen) [2, 15]: 111%
IC50 ([2]; Table S3, counterscreen): 44.7 µM

COc1ccc(S(=O)(=O)Nc2cnccc2C(=O)Nc2nc(-c3ccccc3)cs2)cc1.O=C(O)C(F)(F)F [NCGC00344944-01]
Efficacy (%) (confirmatory screen) ([1]; confirmatory screen): -81%
Confirm? (confirmatory screen) ([1]; confirmatory screen, YES/NO): YES
Curve Class (confirmatory screen) [1, 3]: -2.2
Efficacy (%) [1, 5]: -52%
Curve Class [1, 6]: -2.2
IC50 [1, 7]: 39.8 µM
Efficacy (%) (counterscreen) ([2]; counterscreen): -81%
Curve Class (counterscreen) [2, 8]: -2.2
IC50 ([2]; counterscreen): 44.7 µM

O=c1nc(-c2ccccn2)sc2ccccc12 [NCGC00387147-01]
Efficacy (%) (confirmatory screen) ([1]; confirmatory screen): -28%
Confirm? (confirmatory screen) ([1]; confirmatory screen, YES/NO): YES
Curve Class (confirmatory screen) [1, 3]: -2.4
IC50 [1, 4]: 44.7 µM
Efficacy (%) [1, 5]: -72%
Curve Class [1, 6]: -1.2
IC50 [1, 7]: 28.2 µM
Efficacy (%) (counterscreen) ([2]; counterscreen): 0%
Confirm? (counterscreen) ([2]; counterscreen, YES/NO): YES
Curve Class (counterscreen) [2, 8]: 4

COC[C@H]1OC(=O)c2coc3c2[C@@]1(C)C1=C(C3=O)[C@@H]2CCC(=O)[C@@]2(C)C[C@H]1OC(C)=O [NCGC00163485-03]
IC50 [1, 4]: 28.2 µM
Efficacy (%) (counterscreen) ([2]; counterscreen): -20%
Confirm? (counterscreen) ([2]; counterscreen, YES/NO): YES
Curve Class (counterscreen) [2, 8]: 4
